From the supplement of paper PMC8671470
Structures can show the parent of a compound that is named as a salt.

Experiments:
Conditions in all cases: 72 h
[1] = system: myeloid leukemia patient primary cells Pat.10; assay: area under dose-response curve (viability, 1 nM-10 uM) (fraction (0-1)); higher = more sensitive
Method: (§1)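 AUC (0–1, higher = more sensitive) of the 5-point dose–response (1 nM–10 µM, 72 h, CellTiter-Glo) in primary AML/CML patient mononuclear cells. 0.030103 is the floor for inactive compounds.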

[2] = system: myeloid leukemia patient primary cells Pat.11; assay: as above
Method: as §1

[3] = system: myeloid leukemia patient primary cells Pat.12; assay: as above
Method: as §1

[4] = system: myeloid leukemia patient primary cells Pat.13; assay: as above
Method: as §1

[5] = system: myeloid leukemia patient primary cells Pat.14; assay: as above
Method: as §1

[6] = system: myeloid leukemia patient primary cells Pat.15; assay: as above
Method: as §1

[7] = system: myeloid leukemia patient primary cells Pat.1; assay: as above
Method: as §1

[8] = system: myeloid leukemia patient primary cells Pat.2; assay: as above
Method: as §1

[9] = system: myeloid leukemia patient primary cells Pat.3; assay: as above
Method: as §1

[10] = system: myeloid leukemia patient primary cells Pat.4; assay: as above
Method: as §1

[11] = system: myeloid leukemia patient primary cells Pat.5; assay: as above
Method: as §1

[12] = system: myeloid leukemia patient primary cells Pat.6; assay: as above
Method: as §1

[13] = system: myeloid leukemia patient primary cells Pat.7; assay: as above
Method: as §1

[14] = system: myeloid leukemia patient primary cells Pat.8; assay: as above
Method: as §1

[15] = system: myeloid leukemia patient primary cells Pat.9; assay: as above
Method: as §1

MV4-11 = assay: cell viability (% survival relative to DMSO control); higher = less cytotoxic
Method: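 8x8 drug-combination matrices (0–5000 nM; rosiglitazone and lestaurtinib 0–1000 nM) were run in MV4-11 cells for 72 h with CellTiter-Glo read-out. Survival is normalised to DMSO and 10 µM bortezomib and clipped at 100%.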

O=C(c1c2ccccc2cc2ccccc12)N1CCC(N2CCC[C@@H](C(=O)N3CCOCC3)C2)CC1
Conditions	area under dose-response curve
[1]	< 0.0301
[2]	< 0.0301
[3]	< 0.0301
[4]	< 0.0301
[5]	< 0.0301
[6]	< 0.0301
[7]	< 0.0301
[8]	< 0.0301
[9]	< 0.0301
[10]	< 0.0301
[11]	0.309
[12]	< 0.0301
[13]	0.312
[14]	< 0.0301
[15]	0.327

c1ccc2c(c1)SCc1c-2[nH]c2ccccc12
Conditions	area under dose-response curve
[1]	0.505
[2]	0.148
[3]	0.165
[4]	0.176
[5]	0.403
[6]	0.22
[7]	0.132
[8]	0.142
[9]	0.37
[10]	0.192
[11]	0.787
[12]	0.14
[13]	0.259
[14]	0.139
[15]	0.397

CCC(CC#N)OC(=O)N[C@@H](C)c1cccc(NC(=O)Nc2ccc(-c3cnco3)c(OC)c2)c1 (stereo in doubt) [AVN-944]
Conditions	area under dose-response curve
[1]	0.508
[3]	< 0.0301
[4]	0.162
[5]	0.167
[8]	< 0.0301
[9]	0.44
[10]	0.162
[11]	0.641
[13]	0.545
[15]	0.438

CN(C)C(=O)n1nnnc1Cc1ccc(-c2ccccc2)cc1 + CCOC(=O)N1c2ccc(C(F)(F)F)cc2[C@@H](N(Cc2cc(C(F)(F)F)cc(C(F)(F)F)c2)C(=O)OC)C[C@H]1CC [Torcetrapib]
cell viability [%], MV4-11
Conditions	drug1 concentration 5 nM	drug1 concentration 10 nM	drug1 concentration 50 nM	drug1 concentration 100 nM	drug1 concentration 500 nM	drug1 concentration 1000 nM	drug1 concentration 5000 nM
drug2 concentration 5 nM	> 100	95	> 100	89.1	76.8	> 100	0.81
drug2 concentration 10 nM	94.9	96	> 100	85	74.3	79.8	3.27
drug2 concentration 50 nM	> 100	> 100	> 100	87.6	88.5	97.3	4.29
drug2 concentration 100 nM	> 100	> 100	> 100	> 100	> 100	77.1	1.95
drug2 concentration 500 nM	> 100	> 100	> 100	98	> 100	> 100	1.23
drug2 concentration 1000 nM	98	99.8	85.5	93	99.7	> 100	2.41
drug2 concentration 5000 nM	98.2	> 100	> 100	98.2	> 100	94.2	2.53

Oc1ncc(F)c(O)n1 [5-fluorouracil]
Conditions	area under dose-response curve
[1]	0.0668
[2]	< 0.0301
[3]	< 0.0301
[4]	< 0.0301
[5]	< 0.0301
[6]	< 0.0301
[7]	< 0.0301
[8]	< 0.0301
[9]	0.0441
[10]	0.0407
[11]	0.188
[12]	< 0.0301
[13]	0.0322
[14]	< 0.0301
[15]	0.0717

Oc1ncc(F)c(O)n1 [5-fluorouracil] + C[C@]12O[C@H](C[C@]1(O)CO)n1c3ccccc3c3c4c(c5c6ccccc6n2c5c31)CNC4=O [Lestaurtinib]
cell viability [%], MV4-11
Conditions	drug1 concentration 5 nM	drug1 concentration 10 nM	drug1 concentration 50 nM	drug1 concentration 100 nM	drug1 concentration 500 nM	drug1 concentration 1000 nM	drug1 concentration 5000 nM
drug2 concentration 1 nM	88.4	> 100	> 100	88.1	69.4	68.5	12.8
drug2 concentration 5 nM	70.5	43	50.6	46	55.2	41.9	21.9
drug2 concentration 10 nM	26.4	23.6	28.6	42.1	19	25.7	13.7
drug2 concentration 50 nM	2.49	4.72	2.14	3.46	4.09	5.74	1.61
drug2 concentration 100 nM	3.32	0.99	1.1	1.76	0.68	3.09	-0.36
drug2 concentration 500 nM	0.17	-0.1	1.37	1.89	0.91	0.05	0.08
drug2 concentration 1000 nM	-1.49	-0.48	0.53	3.29	2.21	1.49	0.17

CN(C)CCNC(=O)c1cccn2c(=O)c3cc4ccccc4cc3nc12 [Bmh-21]
Conditions	area under dose-response curve
[1]	0.263
[2]	0.31
[3]	0.233
[4]	0.338
[5]	0.254
[6]	0.386
[7]	0.368
[8]	0.0874
[9]	0.351
[10]	0.36
[11]	0.372
[12]	0.199
[13]	0.318
[14]	0.121
[15]	0.396

CN(C)CCNC(=O)c1cccn2c(=O)c3cc4ccccc4cc3nc12 [Bmh-21] + O=C(O)CC[N+](=O)[O-] [3-nitropropionic acid]
cell viability [%], MV4-11
Conditions	drug1 concentration 5 nM	drug1 concentration 10 nM	drug1 concentration 50 nM	drug1 concentration 100 nM	drug1 concentration 500 nM	drug1 concentration 1000 nM	drug1 concentration 5000 nM
drug2 concentration 5 nM	92.2	> 100	96.9	80.6	72.2	88.4	29.9
drug2 concentration 10 nM	> 100	> 100	> 100	> 100	39.5	77.4	34.1
drug2 concentration 50 nM	91.9	88.3	90.3	> 100	73.8	78.7	57.4
drug2 concentration 100 nM	81.9	> 100	> 100	93.2	77.6	84.5	91.6
drug2 concentration 500 nM	> 100	99.8	96.2	95.9	> 100	96.8	11.1
drug2 concentration 1000 nM	90.9	89.5	> 100	98.2	> 100	57.3	68.4
drug2 concentration 5000 nM	> 100	77.9	66.9	> 100	62.8	59.4	43.1

O=C(Cc1cccc(OC(F)(F)F)c1)Nc1ccc(CCCCc2nnc(NC(=O)Cc3ccccn3)s2)nn1 [CB-839]
Conditions	area under dose-response curve
[1]	0.665
[2]	< 0.0301
[3]	< 0.0301
[4]	< 0.0301
[5]	0.434
[6]	0.283
[7]	< 0.0301
[8]	< 0.0301
[9]	0.702
[10]	< 0.0301
[11]	< 0.0301
[12]	< 0.0301
[13]	0.532
[14]	< 0.0301
[15]	0.752

O=C(/C=C/c1cccnc1)NCCCCC1CCN(C(=O)c2ccccc2)CC1 [Daporinad]
Conditions	area under dose-response curve
[1]	0.956
[2]	0.849
[3]	0.772
[4]	0.754
[5]	0.977
[6]	0.792
[7]	0.616
[8]	0.754
[9]	0.995
[10]	0.947
[11]	0.995
[12]	0.609
[13]	0.995
[14]	0.823
[15]	0.995

Nc1ccn([C@@H]2O[C@H](CO)[C@@H](O)C2(F)F)c(=O)n1 [Gemcitabine]
Conditions	area under dose-response curve
[1]	0.257
[3]	< 0.0301
[4]	0.0519
[5]	0.131
[6]	0.0872
[7]	0.0673
[8]	0.0848
[9]	0.782
[10]	0.155
[11]	0.956
[12]	< 0.0301
[13]	0.135
[14]	0.0474
[15]	0.956

Clc1cc(Cl)c(OCC#CI)cc1Cl [Haloprogin]
Conditions	area under dose-response curve
[1]	0.411
[2]	0.166
[3]	0.204
[4]	0.152
[5]	0.427
[6]	0.183
[7]	0.258
[8]	0.209
[9]	0.388
[10]	0.323
[11]	0.677
[12]	0.238
[13]	0.356
[14]	0.175
[15]	0.505

O=c1[nH]c(=O)n([C@H]2C[C@H](O)[C@@H](CO)O2)cc1I [Idoxuridine]
Conditions	area under dose-response curve
[1]	< 0.0301
[2]	< 0.0301
[3]	< 0.0301
[4]	< 0.0301
[5]	< 0.0301
[6]	< 0.0301
[7]	< 0.0301
[8]	< 0.0301
[9]	< 0.0301
[10]	< 0.0301
[11]	< 0.0301
[12]	< 0.0301
[13]	< 0.0301
[14]	< 0.0301
[15]	< 0.0301

NS(=O)(=O)c1ccc(S(=O)(=O)Nc2cccc3c(Cl)c[nH]c23)cc1 [Indisulam]
Conditions	area under dose-response curve
[1]	< 0.0301
[3]	< 0.0301
[4]	0.167
[6]	0.0789
[7]	0.128
[8]	< 0.0301
[9]	0.137
[10]	0.29
[11]	0.379
[13]	0.228
[14]	0.0654
[15]	0.227

Cc1nnc(-c2ccc(N3CCC(Oc4ccccc4C(F)(F)F)CC3)nn2)s1 [MF-438]
Conditions	area under dose-response curve
[1]	< 0.0301
[2]	< 0.0301
[3]	< 0.0301
[4]	< 0.0301
[5]	< 0.0301
[7]	< 0.0301
[8]	< 0.0301
[11]	0.232
[12]	< 0.0301
[13]	0.128
[14]	< 0.0301
[15]	< 0.0301

CCCCCCCCCCCCC/C=C/[C@@H](O)[C@H](CO)N(C)C [N,N-Dimethylsphingosine]
Conditions	area under dose-response curve
[1]	0.468
[2]	0.0868
[3]	0.0829
[4]	0.131
[5]	0.273
[6]	0.113
[7]	0.0643
[8]	0.127
[9]	0.384
[10]	0.153
[11]	0.664
[12]	0.15
[13]	0.335
[14]	0.114
[15]	0.516

Nc1nc(O)c2c(CCc3ccc(C(=O)N[C@@H](CCC(=O)O)C(=O)O)cc3)c[nH]c2n1 [Pemetrexed]
Conditions	area under dose-response curve
[1]	< 0.0301
[2]	< 0.0301
[3]	< 0.0301
[4]	< 0.0301
[5]	< 0.0301
[6]	< 0.0301
[7]	< 0.0301
[8]	< 0.0301
[9]	0.196
[10]	< 0.0301
[11]	0.0877
[12]	< 0.0301
[13]	< 0.0301
[14]	< 0.0301
[15]	0.0468

C=C1NC(=O)c2cc(CN(C)c3ccc(C(=O)N[C@@H](CCC(=O)O)C(=O)O)s3)ccc2N1 [Raltitrexed]
Conditions	area under dose-response curve
[1]	< 0.0301
[2]	< 0.0301
[3]	< 0.0301
[4]	< 0.0301
[5]	< 0.0301
[6]	< 0.0301
[7]	< 0.0301
[8]	< 0.0301
[9]	0.324
[10]	< 0.0301
[11]	< 0.0301
[12]	< 0.0301
[13]	< 0.0301
[14]	< 0.0301
[15]	< 0.0301

Fc1ccc(CNc2ncnc3ccc(F)cc23)cc1 [Spautin 1]
Conditions	area under dose-response curve
[1]	0.0351
[3]	< 0.0301
[4]	0.111
[5]	0.141
[6]	0.12
[7]	0.0783
[10]	0.0735
[11]	0.326
[12]	0.0755
[13]	0.154
[14]	0.0661
[15]	0.762

O=C(Oc1cccc(F)c1OC(=O)c1cccc(O)c1)c1cccc(O)c1 [WZB117]
Conditions	area under dose-response curve
[1]	0.176
[2]	0.0511
[3]	0.0633
[4]	< 0.0301
[5]	0.107
[7]	0.0346
[8]	0.0336
[9]	0.162
[10]	0.0833
[11]	0.748
[12]	< 0.0301
[13]	0.119
[14]	0.211
[15]	0.223

CC(C)(Cc1ccccc1)NCC(O)c1ccc(O)c(NS(C)(=O)=O)c1 (stereo not given) [Zinterol hydrochloride]
Conditions	area under dose-response curve
[1]	< 0.0301
[2]	< 0.0301
[3]	< 0.0301
[4]	< 0.0301
[5]	< 0.0301
[6]	< 0.0301
[7]	< 0.0301
[8]	< 0.0301
[10]	< 0.0301
[11]	< 0.0301
[12]	< 0.0301
[13]	< 0.0301
[14]	< 0.0301
[15]	< 0.0301
